Assay results: US6649763B1, “Optically active quinoline carboxylic acid derivatives with 7-pyrrolidine substituents causing optical activity and a process for the preparation thereof” (Dong Wha Pharm. Ind. Co., Ltd., priority 1999, dated 2003)
In brackets after ≈: the same amount, converted by molar mass.

Columns and labels:
in vivo = settings: for Cmax / half-life: SD, rat, in vivo, po, 40 mg/kg
Procedure: After being starved for 16 hours, SD rats were orally administered at a dose of 40 mg/5 ml/kg with the compounds of interest and at a dose of 50 mg/5 ml/kg with the control. Immediately after being drawn at predetermined times from the eyeballs, blood was separated into plasma and other ingredients and quantitatively analyzed for pharmacokinetic parameters by use of high performance liquid chromatograph (HPLC).

[1] = system: Staphylococcus aureus 692E; experiment: Antibacterial activity in vitro (MIC, agar dilution); type: cell-based; settings: resistant strain Staphylococcus aureus 692E, read-out: minimum inhibitory concentration (MIC)
Procedure: (§1) The optically active quinoline carboxylic acid derivatives of the present invention were tested as to whether they could be useful as antibacterial compounds. In this regard, the compounds were measured for minimum inhibitory concentration (MIC: unit μg/ml) according to an agar dilution process (Hoechst 345) in which Muller-Hinton agars were diluted two fold. For comparison, ciprofloxacin and sparfloxacin were used as controls. Corresponding enantiomers and racemates of the compounds of interest were also used as comparative ones. Bacteria were inoculated at an amount of about 10^7 cfu/ml onto each agar. 18 hours after the inoculation at 37° C., the growth of the bacteria was observed. As to methicillin-resistant strains, their growth was observed 48 hours after the inoculation at […]. Hoechst standard strains were used as the test bacteria.

Escherichia coli DC 0 = experiment: as above; type: cell-based; settings: DC0, standard strain Escherichia coli DC 0, read-out: minimum inhibitory concentration (MIC)
Procedure: as §1

[2] = system: Staphylococcus aureus 503; experiment: as above; type: cell-based; settings: standard strain Staphylococcus aureus 503, read-out: minimum inhibitory concentration (MIC)
Procedure: as §1

[3] = system: Staphylococcus aureus 693E; experiment: as above; type: cell-based; settings: resistant strain Staphylococcus aureus 693E, read-out: minimum inhibitory concentration (MIC)
Procedure: as §1

[4] = system: Staphylococcus aureus 88E; experiment: as above; type: cell-based; settings: resistant strain Staphylococcus aureus 88E, read-out: minimum inhibitory concentration (MIC)
Procedure: as §1

[5] = system: Staphylococcus aureus 293; experiment: as above; type: cell-based; settings: resistant strain Staphylococcus aureus 293, read-out: minimum inhibitory concentration (MIC)
Procedure: as §1

[6] = system: Staphylococcus aureus SG511; experiment: as above; type: cell-based; settings: standard strain Staphylococcus aureus SG511, read-out: minimum inhibitory concentration (MIC)
Procedure: as §1

[7] = system: Staphylococcus aureus 303; experiment: as above; type: cell-based; settings: resistant strain Staphylococcus aureus 303, read-out: minimum inhibitory concentration (MIC)
Procedure: as §1

[8] = system: Pseudomonas aeruginosa 1771M; experiment: as above; type: cell-based; settings: read-out: minimum inhibitory concentration (MIC)
Procedure: as §1

[9] = system: Staphylococcus aureus 208E; experiment: as above; type: cell-based; settings: resistant strain Staphylococcus aureus 208E, read-out: minimum inhibitory concentration (MIC)
Procedure: as §1

[10] = system: Staphylococcus aureus 285; experiment: as above; type: cell-based; settings: standard strain Staphylococcus aureus 285, read-out: minimum inhibitory concentration (MIC)
Procedure: as §1

[11] = system: Streptococus pyogenes 308A; experiment: as above; type: cell-based; settings: standard strain Streptococus pyogenes 308A, read-out: minimum inhibitory concentration (MIC)
Procedure: as §1

[12] = system: Staphylococcus aureus 690E; experiment: as above; type: cell-based; settings: resistant strain Staphylococcus aureus 690E, read-out: minimum inhibitory concentration (MIC)
Procedure: as §1

[13] = system: Staphylococcus aureus 179; experiment: as above; type: cell-based; settings: resistant strain Staphylococcus aureus 179, read-out: minimum inhibitory concentration (MIC)
Procedure: as §1

[14] = system: Staphylococcus aureus 241; experiment: as above; type: cell-based; settings: resistant strain Staphylococcus aureus 241, read-out: minimum inhibitory concentration (MIC)
Procedure: as §1

[15] = system: Staphylococcus aureus 121E; experiment: as above; type: cell-based; settings: resistant strain Staphylococcus aureus 121E, read-out: minimum inhibitory concentration (MIC)
Procedure: as §1

[16] = system: Streptococus pyogenes 77A; experiment: as above; type: cell-based; settings: standard strain Streptococus pyogenes 77A, read-out: minimum inhibitory concentration (MIC)
Procedure: as §1

Escherichia coli DC 2 = experiment: as above; type: cell-based; settings: DC2, standard strain Escherichia coli DC 2, read-out: minimum inhibitory concentration (MIC)
Procedure: as §1

[17] = system: Staphylococcus aureus 256E; experiment: as above; type: cell-based; settings: resistant strain Staphylococcus aureus 256E, read-out: minimum inhibitory concentration (MIC)
Procedure: as §1

[18] = system: Streptococus faecium MD 8b; experiment: as above; type: cell-based; settings: standard strain Streptococus faecium MD 8b, read-out: minimum inhibitory concentration (MIC)
Procedure: as §1

Enterobacter cloacae P99 = experiment: as above; type: cell-based; settings: standard strain Enterobacter cloacae P99, read-out: minimum inhibitory concentration (MIC)
Excerpt: Corresponding enantiomers and racemates of the compounds of interest were also used as comparative ones. Bacteria were inoculated at an amount of about 10^7 cfu/ml onto each agar. […] Hoechst standard strains were used as the test bacteria.

Escherichia coli = experiment: Antibacterial activity in vitro, potency comparison; type: cell-based; settings: against Escherichia coli, a representative Gram-negative strain
Procedure: as §1

[19] = system: Staphylococcus aureus and Staphylococcus epidermis, both resistant to quinolone antibacterial agents; experiment: as above; type: cell-based; settings: for times as potent in antibacterial activity as ciprofloxacin / times as potent in antibacterial activity as sparfloxacin: against resistant Staphylococcus aureus and Staphylococcus epidermis; for fold more potent antibacterial activity than its enantiomer / fold more potent antibacterial activity than its racemate: against resistant staphylcoccus aureus and staphylococcus epidermis (Table 2)
Procedure: as §1

Gram-positive bacteria = experiment: as above; type: cell-based; settings: against Gram-positive bacteria
Procedure: as §1

[20] = system: Staphylococcus epidermidis 319; experiment: Antibacterial activity in vitro (MIC, agar dilution); type: cell-based; settings: Staphylococcus epidermidis, 319, resistant strain Staphylococcus epidermidis 319, read-out: minimum inhibitory concentration (MIC)
Procedure: as §1

[21] = system: Staphylococcus epidermidis 329; experiment: as above; type: cell-based; settings: Staphylococcus epidermidis, 329, resistant strain Staphylococcus epidermidis 329, read-out: minimum inhibitory concentration (MIC)
Procedure: as §1

Phototoxicity test = type: in vivo; settings: CD-1 female mice, oral 50 mg/kg; for edema and erythema observed after UV exposure / increase in ear thickness compared with before the UV exposure: after 48 hours of the UV exposure
Procedure: It is known that the presence of a halogen atom at the 8-position of the quinolone nuclei causes phototoxicity.
After 16 hours of starvation, CD-1 female mice were orally administered with a dose of 50 mg/kg of the compounds and allowed to be exposed for 4.5 hours to a UVA light source. The mice were located 15 cm away from the light source. Whether the mice were damaged in their ears was adopted as a main factor for the phototoxicity and determined after 24 hour and 48 hour UV exposure. The edema which the mice suffered were examined by measuring the thickness changes of their ears with the aid of electronic calipers and calculating average values. Also, an observation was made as to whether the mice suffered from erythema.

Structure (SMILES) | MIC [1] [µg/mL] | MIC (Escherichia coli DC 0) [µg/mL] | MIC [2] [µg/mL] | MIC [3] [µg/mL] | MIC [4] [µg/mL] | MIC [5] [µg/mL] | MIC [6] [µg/mL] | MIC [7] [µg/mL] | MIC [8] [µg/mL] | MIC [9] [µg/mL] | MIC [10] [µg/mL] | MIC [11] [µg/mL] | MIC [12] [µg/mL] | MIC [13] [µg/mL] | MIC [14] [µg/mL] | MIC [15] [µg/mL] | MIC [16] [µg/mL] | MIC (Escherichia coli DC 2) [µg/mL] | MIC [17] [µg/mL] | MIC [18] [µg/mL] | further results
CO/N=C1\CN(c2nc3c(cc2F)c(=O)c(C(=O)O)cn3C2CC2)CC1(C)CN.Cl (single isomer, unassigned; (-)) [Example 9, (−)-7-(4-Aminomethyl-4-methyl-3-(Z)-methyloxyiminopyrrolidin-1-yl)-1-cyclopropyl-6-fluoro-4-oxo-1,4-dihydro[1,8]naphthyridine-3-carboxylic Acid Hydrochloride] | < 0.002 | 0.004 | 0.004 | < 0.002 | < 0.002 | 0.098 | 0.004 | 0.098 | 0.391 | < 0.002 | 0.007 | 0.025 | < 0.002 | 0.098 | 0.098 | < 0.002 | 0.013 | 0.195 | < 0.002 | 0.049 | Cmax (in vivo): 9060 ± 2040 ng/mL; half-life (in vivo): 4.5 h; MIC (Enterobacter cloacae P99): 0.025 µg/mL; fold more potent antibacterial effect than ciprofloxacin (Escherichia coli): almost the same antibacterial potency; fold more potent antibacterial effect than sparfloxacin (Escherichia coli): almost the same antibacterial potency; times as potent in antibacterial activity as ciprofloxacin [19]: 128-390 times; times as potent in antibacterial activity as sparfloxacin [19]: 24-64 times; fold more potent antibacterial activity than its enantiomer [19]: 8-32 fold; fold more potent antibacterial activity than its racemate [19]: 4 fold; fold higher antibacterial activity than ciprofloxacin (Gram-positive bacteria): 4-112 fold; fold higher antibacterial activity than sparfloxacin (Gram-positive bacteria): 4-30 fold
O=C(O)c1cn(C2CC2)c2cc(N3CCNCC3)c(F)cc2c1=O [Ciprofloxacin, ciprofloxacin] | 0.391 (≈ 1.18 µM) | 0.195 (≈ 0.589 µM) | 0.391 (≈ 1.18 µM) | 0.391 (≈ 1.18 µM) | 0.781 (≈ 2.36 µM) | 12.5 (≈ 37.7 µM) | 0.195 (≈ 0.589 µM) | 12.5 (≈ 37.7 µM) | 0.098 (≈ 0.296 µM) | 0.781 (≈ 2.36 µM) | 0.781 (≈ 2.36 µM) | 3.12 (≈ 9.43 µM) | 0.391 (≈ 1.18 µM) | 12.5 (≈ 37.7 µM) | 12.5 (≈ 37.7 µM) | 0.781 (≈ 2.36 µM) | 0.391 (≈ 1.18 µM) | 0.098 (≈ 0.296 µM) | 0.781 (≈ 2.36 µM) | 0.391 (≈ 1.18 µM) | Area Under Curve (in vivo; SD rats, oral, control at 50 mg/5 ml/kg): 12720 ng·h/mL; MIC [20]: 100 µg/mL (≈ 302 µM); MIC [21]: 50 µg/mL (≈ 151 µM)
CO/N=C1\CN(c2c(F)c(N)c3c(=O)c(C(=O)O)cn(C4CC4)c3c2F)CC1(C)CN.Cl (single isomer, unassigned; (-)) [Example 14, (−)-5-Amino-7-(4-aminomethyl-4-methyl-3-(Z)-methyloxyiminopyrrolidin-1-yl)-1-cyclopropyl-6,8-difluoro-4-oxo-1,4-dihydro-3-quinolinecarboxylic Acid Hydrochloride] | < 0.002 | 0.004 | < 0.002 | < 0.002 | < 0.002 | 0.013 | < 0.002 | 0.013 | 0.195 | < 0.002 | < 0.002 | 0.004 | < 0.002 | 0.013 | 0.013 | < 0.002 | < 0.002 | < 0.002 | < 0.002 | 0.013 | Cmax (in vivo): 6670 ± 3330 ng/mL; half-life (in vivo): 6.94 h; MIC [20]: 0.025 µg/mL; MIC [21]: 0.025 µg/mL; MIC (Enterobacter cloacae P99): < 0.002 µg/mL; Thickness of mice's ears after UV exposure, After 24 hr (Phototoxicity test; UVA light source): 21.6 ± 0.52; Thickness of mice's ears after UV exposure, After 48 hr (Phototoxicity test; UVA light source): 21.6 ± 0.52; edema and erythema observed after UV exposure (Phototoxicity test): no erythema was observed; increase in ear thickness compared with before the UV exposure (Phototoxicity test): 16.8%; Thickness of mice's ears, Before UV exposure (Phototoxicity test; baseline before UVA): 18.5 ± 0.76; fold more potent antibacterial effect than ciprofloxacin (Escherichia coli): 49 fold; fold more potent antibacterial effect than sparfloxacin (Escherichia coli): 12-49 fold; times as potent in antibacterial activity as ciprofloxacin [19]: 129-962 times; times as potent in antibacterial activity as sparfloxacin [19]: 24-481 times; fold more potent antibacterial activity than its enantiomer [19]: 2-63 fold; fold more potent antibacterial activity than its racemate [19]: up to four fold more potent; fold higher antibacterial activity than ciprofloxacin (Gram-positive bacteria): 30-781 fold; fold higher antibacterial activity than sparfloxacin (Gram-positive bacteria): 24-195 fold
CO/N=C1\CN(c2cc3c(cc2F)c(=O)c(C(=O)O)cn3C2CC2)CC1(C)CN.Cl (single isomer, unassigned; (-)) [Example 19, (−)-7-(4-Aminomethyl-4-methyl-3-(Z)-methyloxyiminopyrrolidin-1-yl)-1-cyclopropyl-6-fluoro-4-oxo-1,4-dihydro-3-quinolinecarboxylic Acid Hydrochloride] | 0.004 | 0.007 | 0.007 | 0.007 | 0.007 | 0.195 | 0.004 | 0.195 | 0.195 | 0.007 | 0.007 | 0.049 | 0.004 | 0.195 | 0.195 | 0.007 | 0.013 | 0.195 | 0.007 | 0.049 | MIC [20]: 0.391 µg/mL; MIC [21]: 0.391 µg/mL; MIC (Enterobacter cloacae P99): 0.025 µg/mL; fold more potent antibacterial activity than its enantiomer [19]: 12-32 fold; fold more potent antibacterial activity than its racemate [19]: Two-fold higher potency
C[C@@H]1CN(c2c(F)c(N)c3c(=O)c(C(=O)O)cn(C4CC4)c3c2F)C[C@H](C)N1 [Sparfloxacin, sparfloxacin] | 0.049 (≈ 0.125 µM) | 0.195 (≈ 0.497 µM) | 0.049 (≈ 0.125 µM) | 0.049 (≈ 0.125 µM) | 0.098 (≈ 0.25 µM) | 6.25 (≈ 15.9 µM) | 0.098 (≈ 0.25 µM) | 3.12 (≈ 7.96 µM) | 0.098 (≈ 0.25 µM) | 0.098 (≈ 0.25 µM) | 0.009 (≈ 0.0229 µM) | 0.391 (≈ 0.996 µM) | 0.049 (≈ 0.125 µM) | 6.25 (≈ 15.9 µM) | 6.25 (≈ 15.9 µM) | 0.098 (≈ 0.25 µM) | 0.391 (≈ 0.996 µM) | 0.025 (≈ 0.0637 µM) | 0.098 (≈ 0.25 µM) | 0.391 (≈ 0.996 µM) | MIC [20]: 12.5 µg/mL (≈ 31.9 µM); MIC [21]: 12.5 µg/mL (≈ 31.9 µM); MIC (Enterobacter cloacae P99): 0.007 µg/mL (≈ 0.0178 µM); edema and erythema observed after UV exposure (Phototoxicity test): serious edema and erythema; increase in ear thickness compared with before the UV exposure (Phototoxicity test): 150%
